Results: patent US20150125550A1, “APPLICATION OF 2,9-DI-SEC-BUTYL-1,10-PHENANTHROLINE AS A GLIOBLASTOMA TUMOR CHEMOTHERAPY” (priority 2013, published 2015)

What was measured:
[1] = system: GL-26 glioma cells; experiment: SRB recovery assay (48 hr drug, then 48 hr fresh media); format: cell-based, murine (C57BL/6); details: 48 hr drug + 48 hr recovery
Experimental: The sulforhodamine B (SRB) cytotoxicity assays were adapted from Skehan et al. (22). Briefly, either HFF, primary astrocytes or GL-26 cells were plated in 96-well plates at a density of 4,000 cells/well in a volume of 100 µL overnight at 37° C. and 5% CO2. DMSO stock solutions of SBP, MSBP or TMZ were used at a concentration range of 0.1-25 μM for 48 hr before the supernatant was discarded and the cells were fixed for 1 hr with 10% cold trichloroacetic acid (100 μL, per well). Cells used in recovery assay received fresh media for 48 hrs following the 48 hr drug incubation. The plate was then washed 5 times with de-ionized water, air dried, and stained with 0.4% SRB for 10 min (50 μL, per well). After washing 5 times in 1% acetic acid and air-drying, bound SRB was dissolved in 10 mM unbuffered Tris base (pH 10.5; 100 μL, per well). Bound SRB was then read by absorbance at 492 nm on a SpectraMax plate reader (Molecular Devices). The percent survival was then calculated based upon the absorbance values relative to control wells (0 μM SBP in 0.1% DMSO).
To test if constant SBP administration is necessary to maintain growth inhibition, an SRB recovery assay was performed where GL-26 cells were plated and treated as above, but SBP was removed after a 48-hour incubation and replaced by fresh media. […]

[2] = Peripheral pathology and liver toxicity in non-tumor bearing mice; format: in vivo, C57BL/6 mice
Experimental: Histology: For brain tumor histology, mice were perfused intracardially with 4% formaldehyde in Na+/K+ balanced PBS and brains were extracted, incubated in 4% formaldehyde overnight followed by 30% sucrose in Na+/K+ balanced PBS. Brains were flash frozen in isopentane, embedded in optimal cutting temperature compound (OCT), cryosectioned in coronal sections (12 μm) and stained with hematoxylin and eosin. Another cohort of equivalently drug-treated mice was used for liver, lung and gut histology. The mice were then sacrificed on day 19, and the liver, lung and gut tissues were collected and placed in 4% formaldehyde in Na+/K+ balanced PBS overnight. The organs were then placed for 48 hrs in 70% EtOH before paraffin embedding and sectioning at 6 μm. Sections were then stained with hematoxylin and eosin and pathology was assessed blindly and independently by a trained pathologist. A TUNEL staining kit was obtained from TREVIGEN (NeuroTACS II In Situ Apoptosis Detection Kit, Cat#4823-30-K) and used for both ex-vivo slices and in-vitro staining according to manufacturers instructions.
Intra-cardial blood was collected from the non-tumor bearing mice and subjected to centrifugation for 10 minutes to collect the serum. Aspartate transaminase and Alanine transaminase levels were measured in the serum using Bio Scientific (3913 Todd Lane Suite 312 Austin, Tex.) colorimetric kits (Cat#5605-01 and 3460-08 respectively).
To test if the low level of growth inhibition noted in HFF cells translated into lower systemic toxicity in-vivo, non-tumor bearing control and treatment groups of mice were treated with saline and SBP (10 mg/kg), respectively, on days one, seven, and 13. On day 19 following the first SPB or saline injection, the liver, lungs and proximal small intestine were collected for histopathological analysis.

[3] = 10 mg/kg days 1, 7, 13, day 19, non-tumor bearing mice

SMILES: CCC(C)c1ccc2ccc3ccc(C(C)CC)nc3c2n1 (centres unmarked) [Compound 1, 2,9-di-sec-butyl-1,10-phenanthroline]
- GL-26 cell growth inhibition 48 hours after completion of treatment ([1]; 0.8 mM SBP (so in the source)): 31.5±6.6%
- GL-26 cell growth inhibition after extra incubation period ([1]; 1.6-25 mM SBP (so in the source)): up to 85.4±0.2%
- histopathology, duodenum ([2]; 10 mg/kg days 1, 7, 13, day 19): no general pathology
- histopathology, liver ([2]; 10 mg/kg days 1, 7, 13, day 19): some endothelial damage, but no overt hepatocyte damage
- histopathology, lung ([2]; 10 mg/kg days 1, 7, 13, day 19): no overt pathology
- serum alanine transaminase (ALT) [2, 3]: 49.71±14.61 U/L
- serum aspartate transaminase (AST) [2, 3]: 212.3±14.62 U/L
- side effects in healthy mice ([2]; mouse, in vivo): did not appear to experience any significant side effects
